Assay results as given in patent US20230357159A1, “QUINOLINE COMPOUNDS AS SELECTIVE AND/OR DUAL MODULATORS OF BILE ACID RECEPTORS AND LEUKOTRIENE CYSTEINYL RECEPTORS” (PRECISION BIO-THERAPEUTICS S.R.L., priority 2020, published 2023).
Values after ≈ are worked out from the molar mass of the structure shown.

Columns and labels:
CysLT1R = molecular target: T1, CysLT1R (Homo sapiens, UniProt Q9Y271); assay: CysLT1R antagonistic activity assay (Ca2+ fluorescence, 0.1 nM LTD4; Eurofins Cerep-Panlabs); format: cell-based; details: for inhibition at 10 µM: read-out: CysLTR1 (% of inhibition compared to the compound MK571); for IC50: antagonism of 0.1 nM LTD4, read-out: CysLTR1 ICso
T1 construct: Eurofins Cerep-Panlabs (France)
T1 sequence (Q9Y271 1-337): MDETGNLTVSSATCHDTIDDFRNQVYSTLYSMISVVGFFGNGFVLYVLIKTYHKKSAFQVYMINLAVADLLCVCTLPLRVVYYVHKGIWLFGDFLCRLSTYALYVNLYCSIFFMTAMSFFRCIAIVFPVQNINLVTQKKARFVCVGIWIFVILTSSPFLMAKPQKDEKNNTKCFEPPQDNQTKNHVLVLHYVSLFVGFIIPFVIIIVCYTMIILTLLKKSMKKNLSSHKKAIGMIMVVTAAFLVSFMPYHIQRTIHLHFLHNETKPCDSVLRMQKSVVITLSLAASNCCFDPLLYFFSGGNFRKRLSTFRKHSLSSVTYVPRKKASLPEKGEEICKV
Method: (§1) In this table, the activities of the compounds are compared with specific reference compounds, namely CDCA for FXR, TLCA for TGR5/GPBAR1, MK571 for CysLT1R. Each compound is tested at a concentration of 10 microM and the activity of the reference compounds is considered to be 100%.
The antagonistic activity assay was performed by Eurofins Cerep-Panlabs (France). […] The plates are then placed in a microplate reader (CellLux, PerkinElmer), which is used to add the compounds to be tested or the HBSS buffer and then after 5 min with a 0.1 nM LTD4 or HBSS buffer solution (used as control). The change in intensity and fluorescence that varies in proportion to the concentration of free Ca^2+ ion in the cytosol is measured.

FXR [1] = molecular target: T2, FXR (Homo sapiens, UniProt Q96RI1); assay: FXR-mediated transactivation, luciferase reporter in HepG2 cells; format: cell-based; details: compound at 10 microM, CDCA = 100%
T2 construct: expressed in transfected cells; host or cells: HepG2
T2 sequence (Q96RI1 1-486): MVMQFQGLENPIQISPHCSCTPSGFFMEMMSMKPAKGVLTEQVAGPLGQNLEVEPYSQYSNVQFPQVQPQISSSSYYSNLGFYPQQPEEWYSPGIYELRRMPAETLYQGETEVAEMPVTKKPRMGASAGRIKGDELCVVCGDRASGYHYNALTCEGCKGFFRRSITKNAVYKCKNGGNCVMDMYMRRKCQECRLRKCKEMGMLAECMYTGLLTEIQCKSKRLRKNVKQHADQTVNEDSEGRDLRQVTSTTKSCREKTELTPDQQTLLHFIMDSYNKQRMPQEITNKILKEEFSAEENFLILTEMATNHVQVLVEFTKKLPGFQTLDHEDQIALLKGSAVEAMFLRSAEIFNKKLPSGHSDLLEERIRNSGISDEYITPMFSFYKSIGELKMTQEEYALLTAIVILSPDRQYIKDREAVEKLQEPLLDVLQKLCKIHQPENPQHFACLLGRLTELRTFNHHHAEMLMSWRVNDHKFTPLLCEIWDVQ
T2 sequence (P19793 1-462 partner): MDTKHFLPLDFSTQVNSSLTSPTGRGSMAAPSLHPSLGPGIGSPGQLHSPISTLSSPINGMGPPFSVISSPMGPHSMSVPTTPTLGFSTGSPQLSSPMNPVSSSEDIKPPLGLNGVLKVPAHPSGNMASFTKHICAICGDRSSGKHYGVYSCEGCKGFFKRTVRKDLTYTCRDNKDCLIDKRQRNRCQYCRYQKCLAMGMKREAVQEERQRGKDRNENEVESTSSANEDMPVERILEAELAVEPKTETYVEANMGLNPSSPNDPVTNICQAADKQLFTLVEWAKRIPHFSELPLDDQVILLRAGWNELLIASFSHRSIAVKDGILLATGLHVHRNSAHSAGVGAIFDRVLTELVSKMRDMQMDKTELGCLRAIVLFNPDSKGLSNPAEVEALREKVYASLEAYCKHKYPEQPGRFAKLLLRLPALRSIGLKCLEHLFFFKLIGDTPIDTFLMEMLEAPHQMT
Method: as §1
For FXR-mediated transactivation, the HepG2 cells were transfected with 200 ng of the p(hsp27)-TK-LUC reporter vector containing the FXR response element (IR1) cloned from the heat shock protein 27 (hsp27) promoter, 100 ng of pSG5-FXR, 100 ng of pSG5-RXR and 100 of pGL4.70 (Promega, Madison WI), a vector encoding for the human Renilla gene. […]
(§2) Eighteen hours after stimulation, the cell lysates were used to assess Luciferase and Renilla activity by means of the Dual-Luciferase Reporter assay (E1980, Promega Madison WI). The luminescence was measured using the Glomax 20/20 luminometer (Promega, Madison WI) and the Luciferase activity was normalised with the Renilla activity.

human GPBAR1 = molecular target: T3, human GPBAR1 (Homo sapiens, UniProt Q8TDU6); assay: GPBAR1-mediated transactivation, CRE-luciferase reporter in HEK-293T cells; format: cell-based; details: for GPBAR1 (% of activity compared to 10 µM TLCA): compound at 10 microM, TLCA = 100%
T3 construct: expressed in transfected cells; host or cells: HEK-293T
T3 sequence (Q8TDU6 1-330): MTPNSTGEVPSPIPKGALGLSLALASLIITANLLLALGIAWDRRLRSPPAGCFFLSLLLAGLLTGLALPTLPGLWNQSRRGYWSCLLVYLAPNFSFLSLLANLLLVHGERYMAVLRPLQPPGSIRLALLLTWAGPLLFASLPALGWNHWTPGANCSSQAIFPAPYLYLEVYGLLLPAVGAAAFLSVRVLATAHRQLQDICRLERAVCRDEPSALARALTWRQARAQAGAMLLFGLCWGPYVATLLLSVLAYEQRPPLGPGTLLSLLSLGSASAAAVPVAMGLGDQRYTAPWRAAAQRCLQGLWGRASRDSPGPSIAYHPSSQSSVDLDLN
Method: as §1
In another experimental set, 24 hours after transfection, the cells were stimulated with 50 µM of the derivatives CHIN in combination with 10 µM of CDCA or TLCA.
as §2

FXR [2] = molecular target: T2, FXR; assay: FXR-mediated transactivation, luciferase reporter in HepG2 cells; format: cell-based; details: dose-response 0.1-75 µM, read-out: FXR ECso
male C57BL/6 mice = assay: HFD-F diet murine model of NAFLD/NASH; format: in vivo; details: 30 mg/kg daily from day 7
Method: CHIN117 and the efficacy thereof in a murine model of chronic hepatitis induced by a high-fat diet are of particular interest. This murine model simulates NAFLD, which represents a rapidly growing epidemic in industrialised countries and has a very high cost for the health care system. In this model, the mice (male C57BL/6 mice) were fed a diet rich in lipids and cholesterol (2% cholesterol) and added fructose (3%) in water (HFD-F) for 60 days. CHIN117 was administered daily at a dose of 30 mg/kg starting on day 7. […] After eight weeks, the mice develop insulin resistance, as shown by the OGTT results (FIGS. 4E, F).
In addition, HFD-F indicates an increase in body mass index (BMI) and weight of the white adipose tissue of the epididymis (eWAT), of the brown adipose tissue (BAT) and of the liver (FIGS. 5C-I).

Aqueous solubility = format: physicochemical; details: pH 7.4
S9 fraction = assay: Metabolic stability in vitro, S9 fraction; format: in vitro ADME; details: also phase II enzymes
wild-type C57/B16 mice = assay: Acetaminophen (APAP)-induced acute hepatitis in mice; format: in vivo; details: APAP 500 mg/kg oral gavage; 30 mg/kg orally 45 min after induction; 24 hours
Method: CHIN117 and the effect thereof in reducing acetaminophen-induced liver damage (APAP) are of particular interest. In the experimental set, acute hepatitis was induced in wild-type C57/B16 mice by administration of acetaminophen (APAP) at a concentration of 500 mg/kg via oral gavage. 45 minutes after induction of the disease, CHIN117 was administered at a concentration of 30 mg/kg orally. The mice were sacrificed 24 hours after induction of the disease and blood was taken and analysed for blood count and AST and ALT transaminase values.
The administration of the compound CHIN117 was able to alleviate the APAP-induced liver damage by reducing AST and ALT values by about 10-fold if compared to those recorded in the group of mice treated with APAP alone.

[3] = compound at 10 microM, MK571 = 100%, 0.1 nM LTD4

| Compound | inhibition at 10 µM (CysLT1R; [3]) | FXR (% of activity compared to 10 µM CDCA) (FXR [1]) | GPBAR1 (% of activity compared to 10 µM TLCA) (human GPBAR1) | further results |
| --- | --- | --- | --- | --- |
| OCc1cccc(-c2ccc(OCc3ccc4ccccc4n3)cc2)c1 [CHIN118] |  |  |  | CysLTR1 (% of inhibition compared to the compound MK571) (CysLT1R; [3]): 59% |
| CC(C)Oc1cccc(OCc2ccc3ccccc3n2)c1 [CHIN111, 2-((3-isopropoxyphenoxy)methyl)quinoline] | 79% |  |  |  |
| O=C(O)c1cc(O)cc(OCc2ccc3ccccc3n2)c1 [CHIN108, 3-hydroxy-5-(quinolin-2-ylmethoxy)benzoic Acid] |  | 8.22% |  |  |
| COC(=O)c1ccc(-c2ccc(OCc3ccc4ccccc4n3)cc2)cc1 [CHIN119, Methyl 4′-(quinolin-2-ylmethoxy)-[1,1′-biphenyl]-4-carboxylate] | 13% | 6.83% | 13.5% |  |
| COC(=O)c1cccc(OCc2ccc3ccccc3n2)c1 [CHIN104, Methyl 3-(Quinolin-2-ylmethoxy)Benzoate] |  | 32.46% | 23% | EC50 (FXR [2]): 9 µM |
| COC(=O)c1cc(O)cc(OCc2ccc3ccccc3n2)c1 [CHIN107, methyl 3-hydroxy-5-(quinolin-2-ylmethoxy)benzoate] | 59% | 12.78% | 17.58% | IC50 (CysLT1R): > 10 µM |
| O=C(O)c1cccc(-c2ccc(OCc3ccc4ccccc4n3)cc2)c1 [CHIN117, 4′-(quinolin-2-ylmethoxy)-[1,1′-biphenyl]-3-carboxylic Acid] | 109% | 8.9% | 82% | reduction of weight gain (male C57BL/6 mice; HFD-F diet 60 days): about 3 grams; hepatic steatosis, BMI and eWAT, BAT and liver weight (male C57BL/6 mice; HFD-F diet for 8 weeks): almost completely reversed the disease; AUC of OGTT (male C57BL/6 mice; HFD-F diet, after eight weeks): reduces the AUC of OGTT; ALT levels (male C57BL/6 mice; plasma, HFD-F diet): statistically reduces; AST levels (male C57BL/6 mice; plasma, HFD-F diet): statistically reduces; LDL levels (male C57BL/6 mice; plasma, HFD-F diet): statistically reduces; aqueous solubility (Aqueous solubility): 66 µM (≈ 23.5 µg/mL); EC50 (human GPBAR1; dose-response 0.1-75 µM, read-out: GPBAR1 ECso): 4.6 µM; IC50 (CysLT1R): 5.67 µM; CLint S9 fraction (S9 fraction): 6; circulating white blood cell (WBC) values (wild-type C57/B16 mice): comparable to those found in untreated mice; reduction of ALT values compared to mice treated with APAP alone (wild-type C57/B16 mice): about 10 fold; reduction of AST values compared to mice treated with APAP alone (wild-type C57/B16 mice): about 10 fold |
| O=C(O)c1ccc(-c2ccc(OCc3ccc4ccccc4n3)cc2)cc1 [CHIN120, 4′-(quinolin-2-ylmethoxy)-[1,1′-biphenyl]-4-carboxylic Acid] | 43% | 12.76% | 36.74% |  |
| CCC(C)COc1cccc(OCc2ccc3ccccc3n2)c1 (stereo not shown) [CHIN114, 2-((3-(2-methylbutoxy)phenoxy)methyl)quinoline] | 15% |  |  |  |
| OCc1cc(O)cc(OCc2ccc3ccccc3n2)c1 [CHIN109, 3-(hydroxymethyl) -5-(quinolin-2-ylmethoxy)phenol] | 26% | 5.92% |  |  |
| COC(=O)c1cccc(-c2ccc(OCc3ccc4ccccc4n3)cc2)c1 [CHIN116, Methyl 4′-(quinolin-2-ylmethoxy)-[1,1′-biphenyl]-3-carboxylate] | 21% | 11.14% | 56.91% |  |
| OCc1cccc(-c2ccc(OCc3ccc4ccccc4n3)cc2)c1 [CHIN121, (4′-(quinolin-2-ylmethoxy)-[1,1′-biphenyl]-3-yl)methanol] |  | 8.22% | 64.9% |  |
